Assay results from patent publication US5959123A, “3,4-Disubstituted azetidin-2-one derivatives useful as cysteine proteinase regulators” (Synphar Laboratories, Inc., priority 1997, dated 1999).

Assays:
cathepsin L = cathepsin L (Rattus norvegicus, UniProt P07154); assay: In vitro assay for cathepsin L inhibition; assay type: biochemical; settings: r rat cathepsin L; pH 5.0; 10 min incubation at room temperature; substrate N-CBZ-Phe-Arg-AMC (1 mM, 20 μl)
Method: To a 170 μl of enzyme-buffer mixture (enzyme: r rat cathepsin L, diluted to give approximate 15 F units/min, buffer: 58.8 mM sodium citrate, 1.18 mM EDTA, 235 mM sodium chloride, 5 mM DTT, pH 5.0) a 10 μL of inhibitor (dissolved in DMSO) was added. After 10 min of incubation at room temperature, a 20 μl of 1 mM substrate (N-CBZ-Phe-Arg-AMC, dissolved in DMSO) was added to initiate reaction. Reading is followed up for 10 min at the fluoroscan reader (excitation at 380 nm emission at 460 nm).
(§1) A plot of percentage of inhibition vs inhibitor concentration is obtained, and IC50 is determined using a linear regression calculation (concentration of inhibitor which will give 50% inhibition).

cathepsin B = cathepsin B (Rattus norvegicus, UniProt P00787); assay: In vitro assay for cathepsin B inhibition; assay type: biochemical; settings: r rat cathepsin B; pH 5.1; 10 min incubation at room temperature; substrate N-CBZ-Phe-Arg-AMC (5 mM, 20 μl)
Method: The compounds of formula I were tested for inhibition of cathepsin B using the known method (A. J. Barret et al., Biochem. J. 1982, 201, 189-198). To a 170 μl of enzyme-buffer mixture (enzyme: r rat cathepsin B, diluted to give approximate 10 F units/min, buffer: 56 mM sodium acetate, 1.124 mM EDTA, 10 mM DTT, pH 5.1) a 10 μL of inhibitor (dissolved in DMSO) was added. After 10 min of incubation at room temperature, a 20 μl of 5 mM substrate (N-CBZ-Phe-Arg-AMC, dissolved in DMSO) was added to initiate reaction. Reading is followed up for 10 min at the fluoroscan reader (excitation at 380 nm emission at 460 nm).
as §1

Chain of cathepsin L (P07154 114-334): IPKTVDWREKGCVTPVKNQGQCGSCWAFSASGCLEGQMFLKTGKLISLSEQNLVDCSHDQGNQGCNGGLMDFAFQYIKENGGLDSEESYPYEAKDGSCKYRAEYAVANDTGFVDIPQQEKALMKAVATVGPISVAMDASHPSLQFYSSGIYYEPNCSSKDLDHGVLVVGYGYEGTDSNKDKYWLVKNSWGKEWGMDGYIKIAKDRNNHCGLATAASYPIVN
Chain of cathepsin B (P00787 80-333 limits assumed): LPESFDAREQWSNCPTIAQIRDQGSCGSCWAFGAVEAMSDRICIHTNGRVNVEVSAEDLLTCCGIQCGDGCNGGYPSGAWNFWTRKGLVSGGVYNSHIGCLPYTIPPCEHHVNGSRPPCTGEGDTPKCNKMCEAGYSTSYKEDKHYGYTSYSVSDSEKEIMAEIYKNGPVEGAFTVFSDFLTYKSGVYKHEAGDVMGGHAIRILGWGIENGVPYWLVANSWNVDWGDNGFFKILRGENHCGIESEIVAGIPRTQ

| SMILES | IC50 (cathepsin L) [µM] | IC50 (cathepsin B) [µM] |
| --- | --- | --- |
| CC(=O)O[C@@H]1NC(=O)[C@H]1NC(=O)C(NC(=O)OCc1ccccc1)c1ccccc1 (mixture of isomers) [Example 3, (3S,4S)-3-(N-benzyloxycarbonyl-DL-phenylglycyl)-amino-4-acetoxy-azetidin-2-one] | 43.1 | > 50 |
| CC(=O)O[C@@H]1NC(=O)[C@H]1NC(=O)C(Cc1cccs1)NC(=O)OCc1ccccc1 (mixture of isomers) [Example 7, (3S,4S)-3-(N-benzyloxycarbonyl-β-(2-thienyl)-DL-alanyl)-amino-4-acetoxy-azetidin-2-one] | 2.32 | 28.6 |
| CC(=O)O[C@@H]1NC(=O)[C@H]1NC(=O)C1Cc2ccccc2N1C(=O)OCc1ccccc1 (stereo partly drawn) [Example 1, (3S,4S)-3-(1 -N-benzyloxycarbonyl-2-indolinecarbonyl)-amino-4-acetoxy-azetidin-2-one] | 26.7 | > 50 |
| CC(=O)O[C@@H]1NC(=O)[C@H]1NC(=O)[C@H](NC(=O)OCc1ccccc1)c1ccccc1 [Example 2, (3S,4S)-3-(N-benzyloxycarbonyl-D-phenylglycyl)-amino-4-acetoxy-azetidin-2-one] | > 50 | > 50 |
| CC(=O)O[C@@H]1NC(=O)[C@H]1NC(=O)[C@H](CCc1ccccc1)NC(=O)OCc1ccccc1 [Example 4, (3S,4S)-3-(N-benzyloxycarbonyl-L-homophenylalanyl)-amino-4-acetoxy-azetidin-2-one] | 11.4 | > 50 |
| CC(=O)O[C@@H]1NC(=O)[C@H]1NC(=O)[C@H](Cc1cccnc1)NC(=O)OCc1ccccc1 [Example 5, (3S,4S)-3-{N-benzyloxycarbonyl-β-(3-pyridyl)-L-alanyl}-amino-4-acetoxy-azetidin-2-one] | 8.26 | > 50 |
| CC(=O)O[C@@H]1NC(=O)[C@H]1NC(=O)[C@H](Cc1ccccn1)NC(=O)OCc1ccccc1 [Example 6, (3S,4S)-3-(N-benzyloxycarbonyl-β-(2-pyridyl)-L-alanyl)-amino-4-acetoxy-azetidin-2-one] | 12.1 | > 50 |
| CC(=O)O[C@@H]1NC(=O)[C@H]1NC(=O)[C@H](Cc1ccc2ccccc2c1)NC(=O)OCc1ccccc1 [Example 8, (3S,4S)-3-(N-benzyloxycarbonyl-β-(2-naphthyl)-L-alanyl)-amino-4-acetoxy-azetidin-2-one] | 0.0135 | 16.4 |
| CC(=O)O[C@@H]1NC(=O)[C@H]1NC(=O)[C@H](Cc1cccc(F)c1)NC(=O)OCc1ccccc1 [Example 9, (3S,4S)-3-{N-benzyloxycarbonyl-β-(3-fluorophenyl)-L-alanyl}-amino-4-acetoxy-azetidin-2-one] | 0.341 | 18.8 |
| COc1ccc(C[C@H](NC(=O)OCc2ccccc2)C(=O)N[C@@H]2C(=O)N[C@H]2OC(C)=O)cc1 [Example 10, (3S,4S)-3-{N-benzyloxycarbonyl-β-(4-methoxyphenyl)-L-alanyl}-amino-4-acetoxy-azetidin-2-one] | 0.057 | 7.51 |
| O=C(N[C@@H](Cc1ccc2ccccc2c1)C(=O)N[C@@H]1C(=O)N[C@H]1Oc1ccccc1)OCc1ccccc1 [Example 11, (3S,4S)-3-{N-benzyloxycarbonyl-β-(2-naphthyl)-L-alanyl}-amino-4-phenoxy-azetidin-2-one] | 0.015 | 0.9 |
| Cc1cccc(O[C@@H]2NC(=O)[C@H]2NC(=O)[C@H](Cc2ccc3ccccc3c2)NC(=O)OCc2ccccc2)c1 [Example 12A, (3S,4S)-3{N-benzyloxycarbonyl-β-(2-naphthyl)-L-alanyl}-amino-4-(3-methylphenoxy)-azetidin-2-one] | 0.003 | 0.38 |
| Cc1cccc(O[C@H]2NC(=O)[C@H]2NC(=O)[C@H](Cc2ccc3ccccc3c2)NC(=O)OCc2ccccc2)c1 [Example 12B, (3S,4R)-3-{N-benzyloxycarbonyl-β-(2-naphthyl)-L-alanyl}-amino-4-(3-methylphenoxy)-azetidin-2-one] | 0.0004 | 0.08 |
| O=C(N[C@@H](Cc1ccc2ccccc2c1)C(=O)N[C@@H]1C(=O)N[C@H]1Oc1ccc2ccccc2c1)OCc1ccccc1 [Example 13A, (3S,4S)-3-{N-benzyloxycarbonyl-β-(2-naphthyl)-L-alanyl}amino-4-(2-naphthoxy)-azetidin-2-one] | 0.0029 | 1.8 |
| O=C(N[C@@H](Cc1ccc2ccccc2c1)C(=O)N[C@@H]1C(=O)N[C@@H]1Oc1ccc2ccccc2c1)OCc1ccccc1 [Example 13B, (3S,4R)-3-{N-benzyloxycarbonyl-β-(2-naphthyl)-L-alanyl}-amino-4-(2-naphthoxy)-azetidin-2-one] | 0.00011 | 0.0715 |
| O=C(N[C@@H](Cc1ccc2ccccc2c1)C(=O)N[C@@H]1C(=O)N[C@H]1Oc1cccc(N2CCOCC2)c1)OCc1ccccc1 [Example 14A, (3S,4S)-3-{N-benzyloxycarbonyl-β-(2-naphthyl)-L-alanyl}amino-4-{3-(morpholin-4-yl)-phenoxy}-azetidin-2-one] | 0.0027 | 1.7 |
| O=C(N[C@@H](Cc1ccc2ccccc2c1)C(=O)N[C@@H]1C(=O)N[C@@H]1Oc1cccc(N2CCOCC2)c1)OCc1ccccc1 [Example 14B, (3S,4R)-3-{N-benzyloxycarbonyl-β-(2-naphthyl)-L-alanyl}-amino-4-{3-(morpholin-4-yl)-phenoxy}-azetidin-2-one] | 0.0005 | 0.34 |
| O=C(CCc1ccccc1)NC(Cc1ccc2ccccc2c1)C(=O)NC1C(=O)NC1Sc1ccccc1 [Example 15, (3S,4SR)-3-{N-(3-phenylpropionoyl)-β-(2-naphthyl)-L-alanyl}-amino-4-phenylthio-azetidin-2-one] | 0.0061 | 1.91 |
| O=C(CCc1ccccc1)NC(Cc1ccc2ccccc2c1)C(=O)NC1C(=O)NC1S(=O)(=O)c1ccccc1 [Example 16, (3S,4SR)-3-{N-(3-phenylpropionoyl)-β-(2-naphthyl)-L-alanyl}-amino-4-phenylsulfonyl-azetidin-2-one] | 0.0086 | 1.6 |
| O=C(CCc1ccccc1)NC(Cc1ccc2ccccc2c1)C(=O)NC1C(=O)NC1SCCO [Example 17, (3S,4SR)-3-{N-(3-phenylpropionoyl)-β-(2-naphthyl)-L-alanyl}-amino-4-(2-hydroxyethylthio)-azetidin-2-one] | 0.4 | 10.1 |
| O=C(CCc1ccccc1)N[C@@H](Cc1ccc2ccccc2c1)C(=O)N[C@@H]1C(=O)NC1OCc1ccccc1 (stereo partly drawn) [Example 18, (3S,4SR)-3{N-(3-phenylpropionoyl)-β-(2-naphthyl)-L-alanyl}-amino-4-benzyloxy-azetidin-2-one] | 0.0767 | 1.92 |
| O=C(CCc1ccccc1)N[C@@H](Cc1ccc2ccccc2c1)C(=O)N[C@@H]1C(=O)NC1OC1CCCCC1 (stereo partly drawn) [Example 19, (3S,4SR)-3{N-(3-phenylpropionoyl)-β-(2-naphthyl)-L-alanyl}-amino-4-cyclohexyloxy-azetidin-2-one] | 0.39 | 1.95 |
| CC(=O)O[C@@H]1NC(=O)[C@H]1NC(=O)[C@H](Cc1ccc2ccccc2c1)NS(=O)(=O)/C=C/c1ccccc1 [Example 20, (3S,4S)-3-{N-(trans-2-phenyl-eth-1-enesulfonyl)-β-(2-naphthyl)-L-alanyl}-amino-4-acetoxy-azetidin-2-one] | 0.079 | 0.395 |
| CC(=O)O[C@@H]1NC(=O)[C@H]1NC(=O)[C@H](Cc1ccc2ccccc2c1)NC(=O)NCc1ccccc1 [Example 21, (3S,4S)-3-{N-(benzylaminocarbonyl)-β-(2-naphthyl)-L-alanyl}-amino-4-acetoxy-azetidin-2-one] | 0.01 | 2.2 |
| N[C@@H](Cc1ccc(OC2NC(=O)[C@H]2NC(=O)[C@H](Cc2ccc3ccccc3c2)NC(=O)NCc2ccccc2)cc1)C(=O)O (stereo partly drawn) [Example 22, (3S,4SR)-3-{N-(benzylaminocarbonyl)-β-(2-naphthyl)-L-alanyl}-amino-4-{4-(2S-2-amino-2-carboxy-ethyl)-phenoxy}-azetidin-2-one] | 0.013 | 8.4 |
| CC(=O)O[C@@H]1NC(=O)[C@H]1NC(=O)[C@H](CCCNC(N)=O)NC(=O)CCc1ccccc1 [Example 23, (3S,4S)-3-{N-(3-phenylpropionyl)-L-citrullinyl}-amino-4-acetoxy-azetidin-2-one] | 11.5 | 11 |
| CC(=O)O[C@@H]1NC(=O)[C@H]1NC(=O)[C@H](CCCN=C(N)N[N+](=O)[O-])NC(=O)CCc1ccccc1 [Example 24, (3S,4S)-3-{N^α -(3-phenylpropionyl)-N-nitro-L-arginyl}-amino-4-acetoxy-azetidin-2-one] | 0.0168 | 31.4 |
| CC(C)(C)OC[C@H](NC(=O)OCc1ccccc1)C(=O)N[C@@H]1C(=O)N[C@@H]1Oc1ccccc1 [Example 25, (3S,4R)-3-(2S-2-benzyloxycarbonylamino-2-t-butyloxymethyl-acetamido)-4-phenoxy-azetidin-2-one] | 2.19 | 11 |
